Experiments:
[1] = ROS-generating activity in cell-free system (H2DCFDA, HRP); assay type: biochemical; conditions: GSH 0.25 μM or 2.5 μM added to SsnB 10 μM + H2DCFDA + HRP
Procedure: FIG. 2D and FIG. 2E illustrate the ROS generating capacity of SsnB evaluated in a cell-free system containing H2DCFDA (25 μM), horseradish peroxidase (HRP, 5 units/ml), SsnB (10 μM) and glutathione (GSH, 0.25 or 2.5 μM) alone or in various combinations. Optical density (O.D.) at 540 nm were taken at different time points and plotted.
In a reaction system, after the removal of acetate group by cellular esterases and oxidation by reactive oxygen species, the non-fluorescent carboxy-H2DCFDA dye is oxidized to fluorescent molecule carboxy-DCF. To measure the ROS-generating activity of SsnB, the oxidation of carboxy-H2DCFDA dye was monitored in a cell-free system containing carboxy-H2DCFDA dye, horseradish peroxidase (HRP) and SsnB at 540 nm. HRP was used to supply esterase since without esterase carboxy-H2DCFDA is not sensitive to oxidant. […] After addition of HRP (5 units/ml) in the reaction mixture containing SsnB (10 μM)+H2DCFDA dye (25 μM), the OD value increased by 2% in the first 240 sec and further increased by 8% after 15 min compared to H2DCFDA+HRP reaction, indicating the increased oxidation of H2DCFDA to the fluorescent compound.

[2] = system: human neuroblastoma cell lines (SH-SY5Y, SKNF-1, NGP, IMR-32 and SK-N-BE(2) cells); experiment: MTT cell viability assay; assay type: cell-based; conditions: NAC 1 mM or 5 mM pretreatment 1 h, then SsnB 10 μM; p<0.05 vs SsnB alone
Text: Human neuroblastoma cell lines (SH-SY5Y, IMR-32, SK-N-BE(2) and SKNF-1 cells) were obtained from The American Type Culture Collection (ATCC; Manassas, Va.), and NGP cells were kind gift from Garrett M. Brodeur (The Children's Hospital of Philadelphia, Philadelphia, Pa.). All cell lines were maintained in complete Dulbecco's Modified Eagle's Medium (DMEM) supplemented with 10% fetal bovine serum (FBS; Atlanta Biologicals, Lawrenceville, Ga.) and 1× antibiotic-antimycotic solution (containing 100 U/ml penicillin, 100 μg/ml streptomycin and 0.25 μg/ml amphotericin B), and grown at 37° C. in a humidified incubator with 5% CO2. Stock solution of SsnB was prepared in dimethyl sulfoxide (DMSO). Cells treated with different concentrations of SsnB in DMEM with 10% FBS were grown for subsequent days. Cells treated with equal volume of DMSO were used as control.
The viability of SsnB-treated cells was determined by MTT assay following manufacturer's instructions (Roche diagnostics corporation, Indianapolis, Ind.). Briefly, cells (1×10^4 cells/well) grown in 96-well cell culture plate were incubated with or without SsnB in 100 μl of complete culture medium with 10% FBS. After treatments, cells were incubated with 10 μl of MTT reagent for 4 h and then incubated overnight in solubilization buffer (100 μl) at 37° C. Absorbance of the formazan product was read at 575 nm in spectramax spectrophotometer (Molecular Devices, Sunnyvale, Calif.). A reference wavelength of 690 nm was used to detect background. The measured absorption directly correlated with the number of viable cells in culture. The experiments were performed in triplicate and repeated at least three times.
MTT assay was carried out to examine the effects of SsnB on viability of all the above listed neuroblastoma cells. After 2 days (SH-SY5Y and IMR-32), 3 days (NGP cells) or 4 days (SKNF-1 and SK-N-BE(2) cells) treatment with SsnB (1, 5, 10 and 20 μM), MTT cell viability assays were performed.

[3] = system: reactive oxygen species in neuroblastoma cells; experiment: ROS generation, H2DCFDA fluorometry assay; assay type: cell-based, human; conditions: NAC 1 and 5 mM, SsnB 10 μM; p<0.05 vs SsnB alone
Procedure: The production of reactive oxygen species (ROS) in SsnB-treated neuroblastoma cells was detected by a cell-permeable fluorescence probe H2DCFDA (carboxy-2′,7′-dichlorodihydrofluorescein diacetate) according to the manufacturer's instructions (Invitrogen, Carlsbad, Calif.). Briefly, neuroblastoma cells were cultured in DMEM with 10% FBS in Lab-TekII chamber slides (Fisher Scientific, Pittsburg, Pa.) and treated with SsnB for 2 days (SH-SY5Y and IMR-32 cells), 3 days (NGP cell) or 4 days (SKNF-1 and SK-N-BE(2) cells). After treatments, cells were washed with Hank's buffered salt solution (HBSS; Thermo Scientific, Waltham, Mass.) and incubated with 25 μM of carboxy-H2DCFDA dye for 30 min at 37° C. in dark. Nuclei were counterstained with DAPI. Cells were washed three times with HBSS, mounted with Vectashield mounting medium (Vector Laboratories), and immediately examined under Nikon-E600 fluorescence microscopy equipped with fluorescein isothiocyanate (FITC) filter. Oxidation of H2DCFDA probe occurs almost exclusively in the cytosol, and generates a fluorescence that is proportional to ROS generation in that cell. As a negative control, cells without H2DCFDA dye were used to detect autofluorescence. The fluorometric analysis to detect generation of ROS was performed. Briefly, after treatments with SsnB as mentioned above, cells were labeled with carboxy-H2DCFDA dye (25 μM) for 30 min at 37° C. Cells were trypsinized, washed, and re-suspended in PBS and fluorescence intensity was monitored at excitation wavelength 485 nm and emission wavelength 530 nm with a spectramax spectrophotometer (Molecular Devices, Sunnyvale, Calif.).
SsnB-induced generation of ROS was also evaluated by fluorometry assay. Neuroblastoma cells as treated above were incubated with H2DCFDA dye for 30 min and the fluorescence intensity was measured at 485 nm (excitation wavelength) and 530 nm (emission wavelength).

[4] = system: caspase-3 in neuroblastoma cells; experiment: Cleaved caspase-3 by immunofluorescence and Western blotting; assay type: cell-based, human; conditions: NAC 1 and 5 mM pretreatment, SsnB 10 μM; SH-SY5Y and SK-N-BE(2) cells
Procedure: For immunofluorescence staining, cells grown in Lab-TekII chamber slides (Fisher Scientific, Pittsburgh, Pa.) were treated with SsnB in complete culture medium. After treatments, cells were washed with 1×PBS, fixed with 4% paraformaldehyde/PBS for 20 min, and permeabilized with 0.2% Triton X-100/PBS for 10 min at room temperature. Cells were washed with 1×PBS for 3 times and blocked with 5% immunoglobulin (IgG) free-bovine serum albumin (BSA; Jackson ImmunoResearch Laboratories, West Grove, Pa.) in 1×PBS for overnight at 4° C. Cells were incubated with antibody raised against active form of caspase-3 (Cell Signaling Technology, Danvers, Mass.) diluted in 2.5% BSA/PBS for overnight at 4° C. Primary antibodies were detected with secondary antibodies conjugated with fluorescein isothiocyanate (FITC; Santa Cruz Biotechnology, Dallas, Tex.) for 2 h at room temperature. After washing with 1×PBS, cells were mounted with antifade Vectashield mounting media (Vector Laboratories, Burlingame, Calif.), and signals were visualized under Nikon-E600 fluorescence microscope. Nuclei were counterstained with 4′,6-diamidino-2-phenylindole (DAPI; Sigma).
After treatment with SsnB, cells were collected, washed with 1×PBS, and lysed with 1× cell lysis buffer (Cell Signaling Technology, Danvers, Mass.) containing phenylmethylsulfonyl fluoride (PMSF) and protease inhibitors (aprotinin and leupeptin) for 30 min on ice, and centrifuged at 12000×rpm for 10 min at 4° C. Supernatant (total cell protein) was collected and stored at −80° C. Protein concentration was determined by bicinchoninic acid method using BCA protein assay kit (Pierce/ThermoScientific, Waltham, Mass.). Equal amount of proteins were diluted with 5× Laemmli samples loading buffer and boiled for five minutes. The proteins were subjected to sodium dodecyl sulfate (SDS)-polyacrylamide gel electrophoresis and analyzed by Western blots. Briefly, after electrophoresis, proteins were transferred on polyvinylidene difluoride (PVDF) membrane at 100 volt for 3 h in cold room. Membrane was blocked with 5% non-fat dry milk/TBST (20 mM Tris-Cl, pH 7.4; 150 mM NaCl with 0.1% Tween-20) for 4 h at room temperature followed by incubation in primary antibodies diluted in 2.5% non-fat dry milk/TBST for overnight at 4° C. After washing with TBST, membrane was incubated with secondary antibodies (horseradish peroxidase-conjugated goat anti-rabbit or goat anti-mouse IgG; Santa Cruz Biotechnology, Dallas, Tex.) diluted in 2.5% non-fat dry milk/TBST for 3 h at room temperature. Signals were detected by chemiluminiscence detection kit (Pierce/Thermo Fisher Scientific, Rockford, Ill.). Primary antibodies used were cleaved caspase-3 and β-actin (Cell Signaling Technology), N-myc and p53 (Santa Cruz Biotechnology).
At cellular level, mitochondria- or receptor (Fas/FasL)-mediated pathways activate caspase signaling cascade which in turn induces DNA damage and initiates programmed cell death (apoptosis). To determine whether SsnB-induced cell death is mediated by caspase activation, Western blotting as well as immunofluorescence assay were performed to detect the active form of caspase-3 in neuroblastoma cells treated with SsnB for 2 days (SH-SY5Y and IMR-32 cells), 3 days (NGP cells) or 4 days (SKNF-1 and SK-N-BE(2) cells). The number of cleaved caspase-3 positive cells were quantitated by ImageJ programme and plotted. […]

SMILES | OD value on addition of GSH [1] | viability of SsnB-treated cells [2] | ROS levels in SsnB-treated cells [3] | activation of caspase-3 in SsnB-treated cells [4]
N[C@@H](CCC(=O)N[C@@H](CS)C(=O)NCC(=O)O)C(=O)O [GSH, glutathione, reference compound] | lowers the OD value in a dose dependent manner | – | – | –
CC(=O)NCCSSCCN [NAC, N-acetylcystamine, reference compound] | – | significantly increased the viability | significantly reduced ROS levels | inhibited the activation of caspase-3

Source: patent publication US9446019B2, “Sparstolonin B based pharmaceutical agent for neuroblastoma treatment” (University of South Carolina, priority 2013, dated 2016)
